According to article PMC12027278, “Study of Lysozyme Activity in Bird Egg Whites by Fluorescence Polarization Assay Using Chitooligosaccharide Tracer” (Foods, 2025):

How the values were obtained:
[1] = molecular target: T1, hen egg white lysozyme (HEWL); hen egg lysozyme (Sigma) (Gallus gallus, UniProt P00698); assay: fluorescence polarization; format: biochemical; details: 25 mM phosphate, 0.15 M NaCl, pH 7.4, 25 °C; tracer 3 nM, HEWL 100 µg/mL, added after pre-incubation with non-reactive egg whites; labelled compound
T1 construct: gene LYZ; native mature enzyme, 129 residues, commercial (Sigma) for tracer 2; endogenous in diluted egg white for tracer 1
T1 sequence (P00698 19-147): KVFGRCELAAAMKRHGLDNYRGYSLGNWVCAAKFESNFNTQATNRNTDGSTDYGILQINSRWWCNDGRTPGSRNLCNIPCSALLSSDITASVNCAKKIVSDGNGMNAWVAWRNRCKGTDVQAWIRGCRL

[2] = molecular target: T1, hen egg white lysozyme (HEWL); hen egg lysozyme (Sigma); assay: fluorescence polarization, egg white; format: biochemical; details: 25 mM phosphate, 0.15 M NaCl, pH 7.4, 25 °C; tracer 3 nM; diluted egg white; labelled compound

Structure (SMILES)	fluorescence polarization [1]	fluorescence polarization, egg white [2]
CC(=O)N[C@H]1[C@H](OCCNC(=S)Nc2ccc3c(c2)C(=O)OC32c3ccc(O)cc3Oc3cc(O)ccc32)O[C@H](CO)[C@@H](O[C@@H]2O[C@H](CO)[C@@H](O[C@@H]3O[C@H](CO)[C@@H](O[C@@H]4O[C@H](CO)[C@@H](O[C@@H]5O[C@H](CO)[C@@H](O)[C@H](O)[C@H]5NC(C)=O)[C@H](O)[C@H]4NC(C)=O)[C@H](O)[C@H]3NC(C)=O)[C@H](O)[C@H]2NC(C)=O)[C@@H]1O [compound 2, tracer 2]	A sharp increase in the FP signal followed by a decrease over time was observed	–
CC(=O)N[C@H]1[C@H](OCCNC(=S)Nc2ccc3c(c2)C(=O)OC32c3ccc(O)cc3Oc3cc(O)ccc32)O[C@H](CO)[C@@H](O[C@@H]2O[C@H](CO)[C@@H](O[C@@H]3O[C@H](CO)[C@@H](O)[C@H](O)[C@H]3NC(C)=O)[C@H](O)[C@H]2NC(C)=O)[C@@H]1O [compound 1, tracer 1]	–	a rapid increase in the FP signal was observed, followed by a stable plateau (Figure 6b)
